How the values were obtained:
Conditions in all cases: incubation time: 72 h
BT-474 [1] = experiment: normalised response (% of control), CellTox Green; higher = less cell death (100 = DMSO, 0 = benzethonium chloride kill control)
In short: (§1)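 A 20 µl suspension of breast cancer cells was seeded into each well of 384-well plates containing compound at 5 concentrations in 10-fold steps over a compound-specific 10,000-fold range. After 72 h incubation, CellTox Green fluorescence (485/520 nm) was read first, and CellTiter-Glo luminescence was read after 10 min at room temperature. Each plate was normalised against 0.1 % DMSO (100) and a positive kill control (0), and each value is the normalised signal at one concentration.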

BT-549 [2] = experiment: as above
In short: as §1

CAL-120 [3] = experiment: as above
In short: as §1

CAL-148 [4] = experiment: as above
In short: as §1

CAL-51 [5] = experiment: as above
In short: as §1

CAL-85-1 [6] = experiment: as above
In short: as §1

DU-4475 [7] = experiment: as above
In short: as §1

HCC1143 [8] = experiment: as above
In short: as §1

HCC1599 [9] = experiment: as above
In short: as §1

HCC1937 [10] = experiment: as above
In short: as §1

HDQ-P1 [11] = experiment: as above
In short: as §1

Hs578T [12] = experiment: as above
In short: as §1

MCF-10A [13] = experiment: as above
In short: as §1

MDA-MB-231 [14] = experiment: as above
In short: as §1

MDA-MB-436 [15] = experiment: as above
In short: as §1

MDA-MB-453 [16] = experiment: as above
In short: as §1

MDA-MB-468 [17] = experiment: as above
In short: as §1

MFM-223 [18] = experiment: as above
In short: as §1

BT-474 [19] = experiment: normalised response (% of control), CellTiter-Glo; higher = more viable cells (100 = DMSO, 0 = benzethonium chloride kill control)
Method: (§2)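 DSRT, 72 h incubation, CellTox Green / CellTiter-Glo readout. Signal is normalised to DMSO and benzethonium chloride controls. Value is the normalised response at dose 3.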

BT-549 [20] = experiment: as above
Method: as §2

CAL-120 [21] = experiment: as above
Method: as §2

CAL-148 [22] = experiment: as above
Method: as §2

CAL-51 [23] = experiment: as above
Method: as §2

CAL-85-1 [24] = experiment: as above
Method: as §2

DU-4475 [25] = experiment: as above
Method: as §2

HCC1143 [26] = experiment: as above
Method: as §2

HCC1599 [27] = experiment: as above
Method: as §2

HCC1937 [28] = experiment: as above
Method: as §2

HDQ-P1 [29] = experiment: as above
Method: as §2

Hs578T [30] = experiment: as above
Method: as §2

MCF-10A [31] = experiment: as above
Method: as §2

MDA-MB-231 [32] = experiment: as above
Method: as §2

MDA-MB-436 [33] = experiment: as above
Method: as §2

MDA-MB-453 [34] = experiment: as above
Method: as §2

MDA-MB-468 [35] = experiment: as above
Method: as §2

MFM-223 [36] = experiment: as above
Method: as §2

SK-BR-3 = experiment: as above
Method: as §2

Structure (SMILES)	normalised response (BT-474 [1]) [%]	normalised response (BT-549 [2]) [%]	normalised response (CAL-120 [3]) [%]	normalised response (CAL-148 [4]) [%]	normalised response (CAL-51 [5]) [%]	normalised response (CAL-85-1 [6]) [%]	normalised response (DU-4475 [7]) [%]	normalised response (HCC1143 [8]) [%]	normalised response (HCC1599 [9]) [%]	normalised response (HCC1937 [10]) [%]	normalised response (HDQ-P1 [11]) [%]	normalised response (Hs578T [12]) [%]	normalised response (MCF-10A [13]) [%]	normalised response (MDA-MB-231 [14]) [%]	normalised response (MDA-MB-436 [15]) [%]	normalised response (MDA-MB-453 [16]) [%]	normalised response (MDA-MB-468 [17]) [%]	normalised response (MFM-223 [18]) [%]	normalised response (BT-474 [19]) [%]	normalised response (BT-549 [20]) [%]	normalised response (CAL-120 [21]) [%]	normalised response (CAL-148 [22]) [%]	normalised response (CAL-51 [23]) [%]	normalised response (CAL-85-1 [24]) [%]	normalised response (DU-4475 [25]) [%]	normalised response (HCC1143 [26]) [%]	normalised response (HCC1599 [27]) [%]	normalised response (HCC1937 [28]) [%]	normalised response (HDQ-P1 [29]) [%]	normalised response (Hs578T [30]) [%]	normalised response (MCF-10A [31]) [%]	normalised response (MDA-MB-231 [32]) [%]	normalised response (MDA-MB-436 [33]) [%]	normalised response (MDA-MB-453 [34]) [%]	normalised response (MDA-MB-468 [35]) [%]	normalised response (MFM-223 [36]) [%]	normalised response (SK-BR-3) [%]
CNC(=O)c1cc(Oc2ccc(NC(=O)Nc3cc(C(C)(C)C)nn3-c3ccc4ncccc4c3)c(F)c2)ccn1 [Rebastinib] (10 nM)	98.3	107	101	84.8	101	113	101	86.8	98.2	94.3	57	106	95.4	105	85	98.2	70.1	103	102	109	105	105	90.6	98.7	109	104	98.3	102	107	104	114	92	106	97.1	94.7	96.8	101
Nc1nc(F)nc2c1ncn2[C@@H]1O[C@H](CO)[C@@H](O)[C@@H]1O [Fludarabine] (100 nM)	99.6	–	101	107	109	101	105	119	108	116	101	99.5	98.4	116	101	108	131	104	106	102	101	107	94.1	101	106	102	122	98.3	98.8	107	113	119	101	120	113	111	108
COc1cc2c(Oc3ccc4[nH]c(C)cc4c3F)ncnc2cc1OCCCN1CCCC1 [Cediranib] (10 nM)	96.3	104	95.1	105	109	90.9	97.7	101	113	119	108	111	88.3	106	103	107	138	106	103	113	103	108	92.7	107	104	102	88.5	99.5	100	110	97.9	105	101	107	104	107	104
CCN(CC)CCCC(C)Nc1c2ccc(Cl)cc2nc2ccc(OC)cc12 (centres undefined) [Mepacrine] (500 nM)	103	103	-33	74.7	66.9	104	108	109	93.8	111	85.1	63.5	85.1	99.1	82.7	104	109	96.9	98.9	113	44.1	86.1	64	103	99.8	104	101	98.4	104	98.7	105	103	106	101	93.1	97.2	90.8
O=C(Cc1ccc(-c2ccc(OCCN3CCOCC3)cc2)cn1)NCc1ccccc1 [KX2-391] (100 nM)	85.1	78.5	87.3	65.5	35.6	30.9	95.7	109	93.7	98.5	80.7	-25.9	55.3	51.3	76.9	101	-39.4	75.7	66	50.1	67.8	40.6	32.2	31.8	49.4	44.7	32.3	73.2	72.6	29.9	61	64.4	39.5	72.7	44.6	63.1	19.5
C=CC(=O)N1CCC[C@@H](n2nc(-c3ccc(Oc4ccccc4)cc3)c3c(N)ncnc32)C1 [Ibrutinib] (10 nM)	96.3	87	98.7	84.5	112	95.8	101	114	107	118	107	93.2	63.2	110	100	77.9	92.8	100	104	99.8	106	109	113	99.5	100	105	105	94.2	89	106	102	108	103	87.3	98.4	110	67.4
Nc1ncn([C@H]2C[C@H](O)[C@@H](CO)O2)c(=O)n1 [Decitabine] (100 nM)	94.3	–	90.5	106	76	104	97.5	105	106	91.4	56.6	109	105	91.8	90.2	95.8	89.8	107	103	92.2	99.4	93.1	82.4	97.3	94.9	104	113	93.2	94.9	104	101	105	96.5	107	52.5	104	91.2
O=C(/C=C/c1cccnc1)NCCCCC1CCN(C(=O)c2ccccc2)CC1 [Daporinad] (10 nM)	95.6	–	100	96.1	112	105	101	58.3	101	101	105	21.9	96	95.4	93.7	105	106	84.7	97	102	56.2	115	115	44.6	30.4	45.2	4.73	42.5	74.4	18.4	41.6	91.5	105	21.1	1.06	5.44	103
CC[C@@H]1C(=O)N(C)c2cnc(Nc3ccc(C(=O)NC4CCN(C)CC4)cc3OC)nc2N1C1CCCC1 [BI 2536] (10 nM)	78.1	-328	88.2	–	51.3	65.3	97.5	97.8	101	116	55.5	89.4	64.3	10.1	51.6	101	56.6	73	74.3	37	70.5	55.6	67.2	43.9	85.2	55.7	92.6	84.8	78.4	83.9	82.4	51.4	44.2	70.5	37.3	44.3	15.6
